Experimental data published in patent US10435396B2, “2-substituted indazoles, methods for producing same, pharmaceutical preparations that contain same, and use of same to produce drugs” (Bayer Pharma Aktiengesellschaft, priority 2016, dated 2019).
Read-outs that look alike come from different tables or passages of the source.

Experiments:
[1] = target: human IRAK4 (Homo sapiens (Human), UniProt Q9NWZ3); assay: IRAK4 kinase assay (IRAK4 TR-FRET assay); assay type: biochemical; conditions: 1 mM ATP
Sequence of human IRAK4 (Q9NWZ3 whole entry): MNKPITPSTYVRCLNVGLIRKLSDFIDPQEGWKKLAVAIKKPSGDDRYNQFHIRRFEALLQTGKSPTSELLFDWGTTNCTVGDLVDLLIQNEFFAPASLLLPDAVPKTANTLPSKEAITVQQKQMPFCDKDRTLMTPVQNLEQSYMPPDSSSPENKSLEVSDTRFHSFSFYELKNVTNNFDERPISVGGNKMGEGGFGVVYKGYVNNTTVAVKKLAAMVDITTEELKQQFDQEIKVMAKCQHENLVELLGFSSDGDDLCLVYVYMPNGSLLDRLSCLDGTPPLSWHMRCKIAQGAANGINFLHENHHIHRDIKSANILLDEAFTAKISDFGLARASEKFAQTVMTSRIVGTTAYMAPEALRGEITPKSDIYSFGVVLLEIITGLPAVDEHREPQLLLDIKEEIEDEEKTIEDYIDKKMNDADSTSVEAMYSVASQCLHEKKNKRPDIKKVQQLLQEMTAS
Summary of the method: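 GST-human IRAK4 (insect-cell expressed, ~0.2 nM) was prebound 15 min with compound, then reacted 45 min at 22° C with 1 mM ATP and 0.5 μM biotinylated peptide in HEPES pH 7.5. Phosphopeptide detected by TR-FRET (665/620 nm). IC50 from 4-parameter fit over 11 concentrations, 20 μM-0.073 nM.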

[2] = tested on: TMD-8 cells; assay: Cell proliferation measurement in TMD-8 cells; assay type: cell-based, human; conditions: Cell Titer Glo, read-out: IC50 with respect to proliferation inhibition in TMD-8 cells
Protocol: Cell Proliferation Measurement The antiproliferative activity of the inventive compounds of the general formula (I) was examined in vitro in human ABC-DLBCL cells (see Table 3). For this purpose 4000 TMD-8 cells (both from ATCC) at 30 μl/cavity in growth medium (RPMI (Biochrom: FG 1215), 20% FCS (Biochrom: S 0615)) were transferred into a 384-cavity plate (Perkin Elmer, white) and incubated at 37° C. overnight. After 24 h, cells on one plate (0 h plate) were treated with 30 μl/cavity of CTG solution (Promega Cell Titer Glo (catalogue # […] and […])) and incubated at room temperature for 10 min, and luminescence was measured by means of a VICTOR V (Perkin Elmer), in order to determine cell viability on commencement of treatment. The cells on the test plate were treated with the inventive compounds of the general formula (I) and incubated at 37° C. for 72 h. The compounds were added to the cells in a 7-stage, 3-fold dilution series using an HP D300 digital dispenser. As control, the cells were treated with vehicle (DMSO). After 72 h, the cells were treated with 30 μl/cavity of CTG solution (Promega Cell Titer Glo (catalogue # […] and […])) and incubated at room temperature for 10 min, and luminescence was measured by means of a VICTOR V (Perkin Elmer), in order to determine cell viability at the end of treatment. The percentage effect on cell growth and the IC50 derived therefrom were determined for each test substance using the values from the 0 h plate (=maximum inhibition) and the DMSO control (=minimum inhibition). The IC50 values were calculated using a 4-parameter fit.

Structure (SMILES)	IC50 [1]	IC50 ([2]; Homo sapiens, TMD8, 72 h)	IC50 ([2]; 72 h)
COc1cc2nn(C3CC[S+]([O-])CC3)cc2cc1NC(=O)c1cccc(C(F)(F)F)n1 (racemic) [Example 12, rac-N-[6-Methoxy-2-(1-oxidotetrahydro-2H-thiopyran-4-yl)-2H-indazol-5-yl]-6-(trifluoromethyl)pyridine-2-carboxamide]	2 nM	11500 nM	
COc1cc2nn([C@@H]3C[C@@H]4C[C@H]3CN4C)cc2cc1NC(=O)c1cccc(C(F)(F)F)n1 (relative stereo) [Example 18, rel-N-{6-Methoxy-2-[(1S,4S,5R)-2-methyl-2-azabicyclo[2.2.1]hept-5-yl]-2H-indazol-5-yl}-6-(trifluoromethyl)pyridine-2-carboxamide]	2 nM	3450 nM	
COc1cc2nn(C3CCS(=N)(=O)CC3)cc2cc1NC(=O)c1cccc(C(F)(F)F)n1 (single isomer, unassigned) [Example 20, N-[2-(1-Imino-1-oxidohexahydro-1λ^4-thiopyran-4-yl)-6-methoxy-2H-indazol-5-yl]-6-(trifluoromethyl)pyridine-2-carboxamide]	4 nM		16100 nM
COc1cc2nn(C3CCS(=N)(=O)CC3)cc2cc1NC(=O)c1cccc(C(F)(F)F)n1 (single isomer, unassigned) [Example 21, N-[2-(1-Imino-1-oxidohexahydro-1λ^4-thiopyran-4-yl)-6-methoxy-2H-indazol-5-yl]-6-(trifluoromethyl)pyridine-2-carboxamide]	3 nM	14800 nM	
COc1cc2nn(C3CCOCC3)cc2cc1NC(=O)c1cccc(C(F)(F)F)n1 [Example 1, N-[6-Methoxy-2-(tetrahydro-2H-pyran-4-yl)-2H-indazol-5-yl]-6-(trifluoromethyl)pyridine-2-carboxamide]	3 nM	28200 nM	
COc1cc2nn(C3CCNCC3)cc2cc1NC(=O)c1cccc(C(F)(F)F)n1 [Example 2, N-[6-Methoxy-2-(piperidin-4-yl)-2H-indazol-5-yl]-6-(trifluoromethyl)pyridine-2-carboxamide]	1 nM	8610 nM	
COc1cc2nn(C3CCN(C)CC3)cc2cc1NC(=O)c1cccc(C(F)(F)F)n1 [Example 4, N-[6-Methoxy-2-(1-methylpiperidin-4-yl)-2H-indazol-5-yl]-6-(trifluoromethyl)pyridine-2-carboxamide]	1 nM	4080 nM	
COc1cc2nn(C3CCN(C(=O)CO)CC3)cc2cc1NC(=O)c1cccc(C(F)(F)F)n1 [Example 5, N-[2-(1-Glycoloylpiperidin-4-yl)-6-methoxy-2H-indazol-5-yl]-6-(trifluoromethyl)pyridine-2-carboxamide]	2 nM	15500 nM	
COc1cc2nn(C3CCN(C4COC4)CC3)cc2cc1NC(=O)c1cccc(C(F)(F)F)n1 [Example 10, N-{6-Methoxy-2-[1-(oxetan-3-yl)piperidin-4-yl]-2H-indazol-5-yl}-6-(trifluoromethyl)pyridine-2-carboxamide]	3 nM	23300 nM	
COc1cc2nn(C3CCN(CCO)CC3)cc2cc1NC(=O)c1cccc(C(F)(F)F)n1 [Example 13, N-{2-[1-(2-Hydroxyethyl)piperidin-4-yl]-6-methoxy-2H-indazol-5-yl}-6-(trifluoromethyl)pyridine-2-carboxamide]	1 nM	5850 nM	
COc1cc2nn(C3CCOCC3)cc2cc1NC(=O)c1cccc(C(F)F)n1 [Example 23, 6-(Difluoromethyl)-N-[6-methoxy-2-(tetrahydro-2H-pyran-4-yl)-2H-indazol-5-yl]pyridine-2-carboxamide]	1 nM	8520 nM	
COc1cc2nn(C3CCOCC3)cc2cc1NC(=O)c1cccc(N2CCOCC2)n1 [Example 24, N-[6-Methoxy-2-(tetrahydro-2H-pyran-4-yl)-2H-indazol-5-yl]-6-(morpholin-4-yl)pyridine-2-carboxamide]	2 nM	28100 nM	
COc1cc2nn(C3CCOCC3)cc2cc1NC(=O)c1cccc(C(C)(C)O)n1 [Example 28, 6-(2-Hydroxypropan-2-yl)-N-[6-methoxy-2-(tetrahydro-2H-pyran-4-yl)-2H-indazol-5-yl]pyridine-2-carboxamide]	3 nM	3510 nM	
CC(C)(O)c1cc2nn(C3CCS(=O)(=O)CC3)cc2cc1NC(=O)c1cccc(C(F)(F)F)n1 [Example 44, N-[2-(1,1-Dioxidotetrahydro-2H-thiopyran-4-yl)-6-(2-hydroxypropan-2-yl)-2H-indazol-5-yl]-6-(trifluoromethyl)pyridine-2-carboxamide]	5 nM	18800 nM	
CC(C)(O)c1cc2nn(C3CCNCC3)cc2cc1NC(=O)c1cccc(C(F)(F)F)n1 [Example 46, N-[6-(2-Hydroxypropan-2-yl)-2-(piperidin-4-yl)-2H-indazol-5-yl]-6-(trifluoromethyl)pyridine-2-carboxamide]	3 nM	14100 nM	
